How the values were obtained:
[1] = biological target: T1, alpha 2A (Homo sapiens, UniProt P08913); test: BioPrint panel: alpha 2A (h) (antagonist); assay type: binding; details: 1 micromolar, read-out: percentage of inhibition of activity
T1 construct: purchased Eurofins Pharma Discovery Services (KinaseProfiler; Cerep BioPrint panel)
Source text: (§1) Supplement pone.0189247.s004.xlsx, sheet "Bioprint Selectivity Panel" | column: %

[2] = biological target: T2, PDE3B (Homo sapiens, UniProt Q13370); test: BioPrint panel: PDE3B (h); assay type: biochemical; details: 1 micromolar, read-out: percentage of inhibition of activity
T2 construct: purchased Eurofins Pharma Discovery Services (KinaseProfiler; Cerep BioPrint panel)
T2 sequence (Q13370 whole entry): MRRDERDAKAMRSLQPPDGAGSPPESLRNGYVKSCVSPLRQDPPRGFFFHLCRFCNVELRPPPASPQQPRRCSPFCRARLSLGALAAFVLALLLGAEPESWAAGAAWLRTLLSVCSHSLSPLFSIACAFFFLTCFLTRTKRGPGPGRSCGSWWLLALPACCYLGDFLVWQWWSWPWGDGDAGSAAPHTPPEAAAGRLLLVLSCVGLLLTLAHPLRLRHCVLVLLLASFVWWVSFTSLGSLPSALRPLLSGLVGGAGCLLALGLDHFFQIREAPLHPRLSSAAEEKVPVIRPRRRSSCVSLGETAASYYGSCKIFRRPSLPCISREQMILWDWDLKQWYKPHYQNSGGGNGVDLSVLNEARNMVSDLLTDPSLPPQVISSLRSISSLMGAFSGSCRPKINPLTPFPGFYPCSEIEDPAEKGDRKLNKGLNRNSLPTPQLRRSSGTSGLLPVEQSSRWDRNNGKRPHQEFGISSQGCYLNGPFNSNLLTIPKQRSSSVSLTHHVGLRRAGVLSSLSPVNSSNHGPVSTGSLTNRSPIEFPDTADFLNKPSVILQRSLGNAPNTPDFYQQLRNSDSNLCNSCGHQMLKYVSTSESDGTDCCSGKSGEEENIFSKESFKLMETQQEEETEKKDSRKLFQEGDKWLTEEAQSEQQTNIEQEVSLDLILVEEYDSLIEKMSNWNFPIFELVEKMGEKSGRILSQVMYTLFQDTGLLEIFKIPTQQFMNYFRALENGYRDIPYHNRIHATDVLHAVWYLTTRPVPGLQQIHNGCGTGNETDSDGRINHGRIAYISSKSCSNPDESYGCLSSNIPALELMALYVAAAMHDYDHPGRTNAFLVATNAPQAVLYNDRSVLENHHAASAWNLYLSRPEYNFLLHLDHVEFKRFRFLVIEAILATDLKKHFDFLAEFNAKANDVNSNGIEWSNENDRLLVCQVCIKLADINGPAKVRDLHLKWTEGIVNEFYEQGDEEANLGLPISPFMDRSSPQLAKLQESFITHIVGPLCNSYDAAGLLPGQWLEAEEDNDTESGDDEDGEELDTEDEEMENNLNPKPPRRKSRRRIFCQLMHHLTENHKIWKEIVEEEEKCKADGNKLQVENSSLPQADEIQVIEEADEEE
Source text: as §1

[3] = biological target: T3, BLT1 (LTB4) (Homo sapiens, UniProt Q15722); test: BioPrint panel: BLT1 (LTB4) (h) (agonist); assay type: binding; details: 1 micromolar, read-out: percentage of inhibition of activity
T3 construct: purchased Eurofins Pharma Discovery Services (KinaseProfiler; Cerep BioPrint panel)
T3 sequence (Q15722 whole entry): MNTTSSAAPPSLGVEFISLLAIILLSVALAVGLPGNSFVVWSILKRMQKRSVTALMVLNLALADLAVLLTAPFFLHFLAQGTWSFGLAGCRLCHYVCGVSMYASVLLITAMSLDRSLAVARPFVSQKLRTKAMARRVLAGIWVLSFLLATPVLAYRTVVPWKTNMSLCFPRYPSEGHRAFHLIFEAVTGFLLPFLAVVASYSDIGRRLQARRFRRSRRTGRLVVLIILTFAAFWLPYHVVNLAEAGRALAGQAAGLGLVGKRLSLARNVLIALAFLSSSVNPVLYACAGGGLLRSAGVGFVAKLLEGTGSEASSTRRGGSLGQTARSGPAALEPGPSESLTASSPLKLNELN
Source text: as §1

[4] = test system: BZD (central); test: BioPrint panel: BZD (central) (agonist); assay type: binding; details: 1 micromolar
Source text: as §1

[5] = biological target: T4, 5-HT1D (Rattus norvegicus, UniProt P28565); test: BioPrint panel: 5-HT1D (agonist); assay type: binding; details: 1 micromolar, read-out: percentage of inhibition of activity
T4 construct: purchased Eurofins Pharma Discovery Services (KinaseProfiler; Cerep BioPrint panel)
T4 sequence (P28565 whole entry): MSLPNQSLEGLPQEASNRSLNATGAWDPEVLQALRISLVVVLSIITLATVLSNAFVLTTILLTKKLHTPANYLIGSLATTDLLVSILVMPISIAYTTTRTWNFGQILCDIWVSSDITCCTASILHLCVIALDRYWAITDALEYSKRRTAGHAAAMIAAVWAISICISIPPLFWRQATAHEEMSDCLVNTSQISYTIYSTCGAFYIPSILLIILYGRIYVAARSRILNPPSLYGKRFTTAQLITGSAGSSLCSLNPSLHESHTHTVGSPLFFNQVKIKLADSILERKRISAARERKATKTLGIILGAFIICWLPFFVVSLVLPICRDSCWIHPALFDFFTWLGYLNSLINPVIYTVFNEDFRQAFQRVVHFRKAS
Source text: as §1

[6] = biological target: T5, AT2 (Homo sapiens, UniProt P50052); test: BioPrint panel: AT2 (h) (agonist); assay type: binding; details: 1 micromolar, read-out: percentage of inhibition of activity
T5 construct: purchased Eurofins Pharma Discovery Services (KinaseProfiler; Cerep BioPrint panel)
Source text: as §1

[7] = biological target: T6, GABAA1 (a1, b2, g2) (Homo sapiens, UniProt P14867+P47870); test: BioPrint panel: GABAA1 (h) (a1, b2, g2)(agonist); assay type: binding; details: 1 micromolar, read-out: percentage of inhibition of activity
T6 construct: purchased Eurofins Pharma Discovery Services (KinaseProfiler; Cerep BioPrint panel)
Source text: as §1

[8] = biological target: T7, choline transporter (CHT1) (Homo sapiens, UniProt Q9GZV3); test: BioPrint panel: choline transporter (CHT1) (h) (antagonist); assay type: binding; details: 1 micromolar, read-out: percentage of inhibition of activity
T7 construct: purchased Eurofins Pharma Discovery Services (KinaseProfiler; Cerep BioPrint panel)
T7 sequence (Q9GZV3 whole entry): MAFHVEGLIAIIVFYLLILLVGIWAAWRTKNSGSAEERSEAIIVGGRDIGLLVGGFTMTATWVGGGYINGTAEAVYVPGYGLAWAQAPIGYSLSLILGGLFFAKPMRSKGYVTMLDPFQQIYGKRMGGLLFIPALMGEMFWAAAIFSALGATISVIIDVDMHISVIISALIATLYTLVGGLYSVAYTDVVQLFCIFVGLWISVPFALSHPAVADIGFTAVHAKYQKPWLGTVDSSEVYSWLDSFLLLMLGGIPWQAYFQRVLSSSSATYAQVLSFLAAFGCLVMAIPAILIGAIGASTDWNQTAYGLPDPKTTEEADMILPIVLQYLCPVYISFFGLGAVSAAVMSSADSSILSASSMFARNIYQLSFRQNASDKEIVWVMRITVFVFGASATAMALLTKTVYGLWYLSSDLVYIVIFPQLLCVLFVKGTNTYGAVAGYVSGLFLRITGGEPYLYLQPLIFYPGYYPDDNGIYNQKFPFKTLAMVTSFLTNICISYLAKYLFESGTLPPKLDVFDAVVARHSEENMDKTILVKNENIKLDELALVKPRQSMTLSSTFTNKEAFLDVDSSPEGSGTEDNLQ
Source text: as §1

[9] = biological target: T8, ETA (Homo sapiens, UniProt P25101); test: BioPrint panel: ETA (h) (agonist); assay type: binding; details: 1 micromolar, read-out: percentage of inhibition of activity
T8 construct: purchased Eurofins Pharma Discovery Services (KinaseProfiler; Cerep BioPrint panel)
T8 sequence (P25101 21-427): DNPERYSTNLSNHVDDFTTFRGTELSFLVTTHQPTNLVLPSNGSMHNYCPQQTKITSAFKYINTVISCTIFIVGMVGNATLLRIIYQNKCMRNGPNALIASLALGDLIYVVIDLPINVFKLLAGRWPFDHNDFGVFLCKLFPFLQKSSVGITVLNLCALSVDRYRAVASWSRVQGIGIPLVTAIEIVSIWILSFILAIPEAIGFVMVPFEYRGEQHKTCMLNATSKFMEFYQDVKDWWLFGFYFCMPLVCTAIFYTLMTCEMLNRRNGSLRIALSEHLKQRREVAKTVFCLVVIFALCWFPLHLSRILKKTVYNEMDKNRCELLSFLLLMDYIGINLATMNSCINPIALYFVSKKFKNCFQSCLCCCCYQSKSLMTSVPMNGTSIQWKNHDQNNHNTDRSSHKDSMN
Source text: as §1

[10] = biological target: T9, MMP-1 (Homo sapiens, UniProt P03956); test: BioPrint panel: MMP-1 (h); assay type: biochemical; details: 1 micromolar
T9 construct: purchased Eurofins Pharma Discovery Services (KinaseProfiler; Cerep BioPrint panel)
T9 sequence (P03956 100-469): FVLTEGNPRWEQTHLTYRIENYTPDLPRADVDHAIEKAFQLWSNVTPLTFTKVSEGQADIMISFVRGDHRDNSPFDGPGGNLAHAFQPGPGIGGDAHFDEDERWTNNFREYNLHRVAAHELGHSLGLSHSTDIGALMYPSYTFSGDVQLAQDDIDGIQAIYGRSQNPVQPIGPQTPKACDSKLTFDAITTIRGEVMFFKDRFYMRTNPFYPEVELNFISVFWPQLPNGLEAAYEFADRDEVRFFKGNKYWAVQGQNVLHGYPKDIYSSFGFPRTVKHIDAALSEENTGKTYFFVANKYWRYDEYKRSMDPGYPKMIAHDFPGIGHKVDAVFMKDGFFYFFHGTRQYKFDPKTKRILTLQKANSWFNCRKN
Source text: as §1

[11] = biological target: T10, B2 (Homo sapiens, UniProt P30411); test: BioPrint panel: B2 (h) (agonist); assay type: binding; details: 1 micromolar, read-out: percentage of inhibition of activity
T10 construct: purchased Eurofins Pharma Discovery Services (KinaseProfiler; Cerep BioPrint panel)
Source text: as §1

[12] = biological target: T11, UT (Homo sapiens, UniProt Q9UKP6); test: BioPrint panel: UT (h) (agonist); assay type: binding; details: 1 micromolar, read-out: percentage of inhibition of activity
T11 construct: purchased Eurofins Pharma Discovery Services (KinaseProfiler; Cerep BioPrint panel)
Source text: as §1

[13] = biological target: T12, glucagon (Homo sapiens, UniProt P47871); test: BioPrint panel: glucagon (h) (agonist); assay type: binding; details: 1 micromolar, read-out: percentage of inhibition of activity
T12 construct: purchased Eurofins Pharma Discovery Services (KinaseProfiler; Cerep BioPrint panel)
T12 sequence (P47871 26-477): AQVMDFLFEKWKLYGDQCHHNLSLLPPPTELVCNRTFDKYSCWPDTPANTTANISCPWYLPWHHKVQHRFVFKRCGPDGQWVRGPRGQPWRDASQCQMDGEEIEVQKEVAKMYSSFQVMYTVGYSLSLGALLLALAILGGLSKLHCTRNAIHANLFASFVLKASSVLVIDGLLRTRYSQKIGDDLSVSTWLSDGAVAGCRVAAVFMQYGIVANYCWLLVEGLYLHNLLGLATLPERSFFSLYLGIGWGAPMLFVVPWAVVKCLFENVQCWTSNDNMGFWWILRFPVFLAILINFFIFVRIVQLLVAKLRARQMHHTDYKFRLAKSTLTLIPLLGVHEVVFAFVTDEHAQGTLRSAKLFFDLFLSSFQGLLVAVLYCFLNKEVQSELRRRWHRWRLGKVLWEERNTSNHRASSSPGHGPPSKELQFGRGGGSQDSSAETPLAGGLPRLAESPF
Source text: as §1

[14] = biological target: T13, 5-HT4e (Homo sapiens, UniProt Q13639); test: BioPrint panel: 5-HT4e (h) (antagonist); assay type: binding; details: 1 micromolar, read-out: percentage of inhibition of activity
T13 construct: purchased Eurofins Pharma Discovery Services (KinaseProfiler; Cerep BioPrint panel)
T13 sequence (Q13639 1-378 isoform Q13639-5): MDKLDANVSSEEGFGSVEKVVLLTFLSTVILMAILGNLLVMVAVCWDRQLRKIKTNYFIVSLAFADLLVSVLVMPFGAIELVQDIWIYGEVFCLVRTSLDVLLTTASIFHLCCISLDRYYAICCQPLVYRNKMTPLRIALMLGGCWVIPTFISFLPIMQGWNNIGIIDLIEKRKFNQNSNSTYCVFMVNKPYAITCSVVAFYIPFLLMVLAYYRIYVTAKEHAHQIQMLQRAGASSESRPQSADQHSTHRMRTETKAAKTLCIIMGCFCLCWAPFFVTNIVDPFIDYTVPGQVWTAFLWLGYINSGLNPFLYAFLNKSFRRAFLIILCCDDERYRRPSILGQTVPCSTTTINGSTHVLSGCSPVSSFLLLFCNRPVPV
Source text: as §1

[15] = biological target: T14, DNA-PK (Homo sapiens, UniProt P78527); test: DNA-PK activity (SelectScreen); details: biochemical dose response, duplicate; read-out: Inhibition of indicated activity (IC50, μM): DNA-PK
T14 construct: Thermo Fisher Scientific SelectScreen (contract assay service)
Procedure: Kinase selectivity was evaluated at Eurofins Pharma Discovery Services using a selection of 125 representative kinases tested at a concentration of 10 μM in duplicate (S3 Table). IC50 values for selected activities were further characterized at 9 duplicate concentrations. DNA-PK activity was determined at the SelectScreen® Biochemical kinase Profiling Service of Thermo Fisher Scientific.

[16] = biological target: T15, BB3 (Homo sapiens, UniProt P32247); test: BioPrint panel: BB3 (h) (agonist); assay type: binding; details: 1 micromolar, read-out: percentage of inhibition of activity
T15 construct: purchased Eurofins Pharma Discovery Services (KinaseProfiler; Cerep BioPrint panel)
T15 sequence (P32247 whole entry): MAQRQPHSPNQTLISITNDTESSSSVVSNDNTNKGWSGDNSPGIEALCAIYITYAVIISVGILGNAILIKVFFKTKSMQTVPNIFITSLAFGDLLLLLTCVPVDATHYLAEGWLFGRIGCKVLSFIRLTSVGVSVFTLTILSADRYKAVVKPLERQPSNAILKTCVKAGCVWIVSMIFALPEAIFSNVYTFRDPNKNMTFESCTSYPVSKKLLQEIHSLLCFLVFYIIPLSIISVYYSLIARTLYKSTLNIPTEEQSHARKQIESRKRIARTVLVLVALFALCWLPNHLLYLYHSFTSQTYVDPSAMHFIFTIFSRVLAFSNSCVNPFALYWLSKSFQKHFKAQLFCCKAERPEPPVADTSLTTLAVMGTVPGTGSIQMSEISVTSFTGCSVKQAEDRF
Source text: as §1

[17] = biological target: T16, MMP-2 (Homo sapiens, UniProt P08253); test: BioPrint panel: MMP-2 (h); assay type: biochemical; details: 1 micromolar, read-out: percentage of inhibition of activity
T16 construct: purchased Eurofins Pharma Discovery Services (KinaseProfiler; Cerep BioPrint panel)
Source text: as §1

[18] = biological target: T17, Lyn A kinase (Homo sapiens, UniProt P07948); test: BioPrint panel: Lyn A kinase (h); assay type: biochemical; details: 1 micromolar, read-out: percentage of inhibition of activity
T17 construct: purchased Eurofins Pharma Discovery Services (KinaseProfiler; Cerep BioPrint panel)
Source text: as §1

[19] = biological target: T18, alpha 2B (Homo sapiens, UniProt P18089); test: BioPrint panel: alpha 2B (h) (antagonist); assay type: binding; details: 1 micromolar, read-out: percentage of inhibition of activity
T18 construct: purchased Eurofins Pharma Discovery Services (KinaseProfiler; Cerep BioPrint panel)
Source text: as §1

[20] = biological target: T19, H4 (Homo sapiens, UniProt Q9H3N8); test: BioPrint panel: H4 (h) (agonist); assay type: binding; details: 1 micromolar, read-out: percentage of inhibition of activity
T19 construct: purchased Eurofins Pharma Discovery Services (KinaseProfiler; Cerep BioPrint panel)
Source text: as §1

T1 sequence (P08913 whole entry): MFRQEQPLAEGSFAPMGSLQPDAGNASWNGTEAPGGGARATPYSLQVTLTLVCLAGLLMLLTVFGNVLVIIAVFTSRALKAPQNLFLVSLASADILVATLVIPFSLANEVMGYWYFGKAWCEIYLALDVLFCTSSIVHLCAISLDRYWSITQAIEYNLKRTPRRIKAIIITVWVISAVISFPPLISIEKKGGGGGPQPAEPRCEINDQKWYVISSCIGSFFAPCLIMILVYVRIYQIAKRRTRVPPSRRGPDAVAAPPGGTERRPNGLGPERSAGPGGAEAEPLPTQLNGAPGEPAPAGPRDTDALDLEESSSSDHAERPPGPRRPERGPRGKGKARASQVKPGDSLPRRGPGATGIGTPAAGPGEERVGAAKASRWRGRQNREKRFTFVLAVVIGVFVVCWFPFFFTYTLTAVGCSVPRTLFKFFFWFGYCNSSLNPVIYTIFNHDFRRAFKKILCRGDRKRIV

## Cn1cc(-c2cccc(-c3nc(C(=O)NC4C5CC6CC4CC(O)(C6)C5)c(N)nc3N)c2)cn1 (centres unmarked) [compound 4]
[1]
  inhibition at 1 µM: 6.2%
[2]
  inhibition at 1 µM: 5.8%
[3]
  inhibition at 1 µM: 14.2%
[4]
  percentage of inhibition of activity: -11.1%
[5]
  inhibition at 1 µM: -8.1%
[6]
  inhibition at 1 µM: -8%
[7]
  inhibition at 1 µM: -16%
[8]
  inhibition at 1 µM: 3%
[9]
  inhibition at 1 µM: -12.5%
[10]
  percentage of inhibition of activity: INTER
[11]
  inhibition at 1 µM: -1%
[12]
  inhibition at 1 µM: 7.4%
[13]
  inhibition at 1 µM: -8.3%
[14]
  inhibition at 1 µM: 3.8%
[15]
  IC50: 0.348 µM
[16]
  inhibition at 1 µM: -3.6%
[17]
  inhibition at 1 µM: 13.6%
[18]
  inhibition at 1 µM: 0.1%
[19]
  inhibition at 1 µM: -6.6%
[20]
  inhibition at 1 µM: -1.7%

From paper PMC5761851, “Application of a phenotypic drug discovery strategy to identify biological and chemical starting points for inhibition of TSLP production in lung epithelial cells” (PLoS ONE, 2018)
